PubChem BioAssay AID328 (DTP/NCI, 2004)
“And” between values parts separate entries of the source, which are not always exact repeats. Equal entries are not always repeated. Inconclusive results and toxic doses are left out.

System: BDF1 mice, P388 leukemia ip, median survival T/C
Assay: NCI In Vivo Anticancer Drug Screen. Data for tumor model P388 Leukemia (intraperitoneal) in B6D2F1 (BDF1) mice
Conditions: endpoint: median survival time, higher = longer survival
In short: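 In tumour-bearing mice, survival after compound treatment is set against the vehicle group and given as a quotient.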

[1] = dose: 100.0 mg/kg/injection, schedule: Q01DX001 (ip), vehicle: saline with Tween-80
[2] = dose: 200.0 mg/kg/injection, schedule: Q01DX001 (ip), vehicle: saline with Tween-80
[3] = dose: 100.0 mg/kg/injection, schedule: Q01DX009 (ip), vehicle: saline with Tween-80
[4] = dose: 200.0 mg/kg/injection, schedule: Q01DX009 (ip), vehicle: saline with Tween-80
[5] = dose: 50.0 mg/kg/injection, schedule: Q01DX009 (ip), vehicle: saline
[6] = dose: 100.0 mg/kg/injection, schedule: Q01DX009 (ip), vehicle: saline
[7] = dose: 100.0 mg/kg/injection, schedule: Q04DX003 (ip), vehicle: saline with Tween-80
[8] = dose: 100.0 mg/kg/injection, schedule: Q01DX001 (ip), vehicle: Klucel (hydroxypropylcellulose) (HPC)
[9] = dose: 200.0 mg/kg/injection, schedule: Q01DX001 (ip), vehicle: Klucel (hydroxypropylcellulose) (HPC)
[10] = dose: 400.0 mg/kg/injection, schedule: Q01DX001 (ip), vehicle: Klucel (hydroxypropylcellulose) (HPC)
[11] = dose: 12.5 mg/kg/injection, schedule: Q01DX009 (ip), vehicle: Klucel (hydroxypropylcellulose) (HPC)
[12] = dose: 50.0 mg/kg/injection, schedule: Q01DX009 (ip), vehicle: saline with Tween-80
[13] = dose: 50.0 mg/kg/injection, schedule: Q04DX003 (ip), vehicle: saline with Tween-80

Compound: Clc1cccc(N2CN(c3cccc(Cl)c3)CN(c3cccc(Cl)c3)C2)c1
- T/C [1]: 90 % of control
- T/C [2]: 87 % of control
- T/C (dose: 400.0 mg/kg/injection, schedule: Q01DX001 (ip), vehicle: saline with Tween-80): 91 % of control

Compound: Cc1cccc2c1CC(C(C)C)C2 (configuration not stated)
- T/C [3]: 123 % of control
- T/C [4]: 103 % of control

Compound: CCN(CC)CCCCCNc1cc(OC)cc2c(C)ccnc12
- T/C [5]: 115 % of control
- T/C [6]: 92 % of control

Compound: CCCCOC(=O)c1ccc(NC(=O)Nc2ccccc2OC)cc1
- T/C [7]: 100 % of control

Compound: O=C(/C=C/c1ccncc1)c1ccccc1
- T/C [1]: 122 % of control
- T/C [2]: 113 % of control

Compound: O=[N+]([O-])c1ccc(N=Cc2ccc3c(c2)OCO3)cc1
- T/C [8]: 100 % of control
- T/C [9]: 95 % of control
- T/C [10]: 95 % of control

Compound: CN(C)c1ccc(P(c2ccc(N(C)C)cc2)c2ccc(N(C)C)cc2)cc1
- T/C (dose: 3.12 mg/kg/injection, schedule: Q01DX009 (ip), vehicle: Klucel (hydroxypropylcellulose) (HPC)): 96 % of control
- T/C (dose: 6.25 mg/kg/injection, schedule: Q01DX009 (ip), vehicle: Klucel (hydroxypropylcellulose) (HPC)): 88 % of control
- T/C [11]: 88 % of control
- T/C (dose: 12.5 mg/kg/injection, schedule: Q04DX003 (ip), vehicle: Klucel (hydroxypropylcellulose) (HPC)): 91 % of control
- T/C (dose: 25.0 mg/kg/injection, schedule: Q04DX003 (ip), vehicle: Klucel (hydroxypropylcellulose) (HPC)): 113 % of control
- T/C (dose: 50.0 mg/kg/injection, schedule: Q04DX003 (ip), vehicle: Klucel (hydroxypropylcellulose) (HPC)): 86 % of control

Compound: O=C(O)CNOCN1C(=O)c2ccccc2C1=O
- T/C [8]: 104 % of control
- T/C [9]: 91 % of control
- T/C [10]: 95 % of control

Compound: Cc1ccc(S(=O)C(C)C(Cl)c2ccccc2)cc1 (configuration not stated)
- T/C [12]: 98 % of control
- T/C [3]: 106 % of control
- T/C [4]: 100 % of control

Compound: O=C1c2ccccc2C(=O)N1CCC[P+](c1ccccc1)(c1ccccc1)c1ccccc1
- T/C (dose: 1.56 mg/kg/injection, schedule: Q01DX009 (ip), vehicle: Klucel (hydroxypropylcellulose) (HPC)): 102 % of control
- T/C [11]: 151 % of control

Compound: CCNC1(c2ccc(Cl)cc2)CCCCC1=O (configuration not stated)
- T/C (dose: 25.0 mg/kg/injection, schedule: Q01DX009 (ip), vehicle: saline): 100 % of control
- T/C [5]: 95 % of control and 100 % of control
- T/C (dose: 50.0 mg/kg/injection, schedule: Q04DX003 (ip), vehicle: saline): 100 % of control
- T/C [6]: 86 % of control
- T/C (dose: 100.0 mg/kg/injection, schedule: Q04DX003 (ip), vehicle: saline): 95 % of control

Compound: CN1CCN(CCCN2c3ccccc3Sc3ccc(C(F)(F)F)cc32)CC1
- T/C (dose: 6.25 mg/kg/injection, schedule: Q01DX009 (ip), vehicle: saline): 109 % of control
- T/C (dose: 9.37 mg/kg/injection, schedule: Q01DX009 (ip), vehicle: saline): 118 % of control
- T/C (dose: 9.37 mg/kg/injection, schedule: Q04DX003 (ip), vehicle: saline with Tween-80): 117 % of control
- T/C (dose: 12.5 mg/kg/injection, schedule: Q01DX009 (ip), vehicle: saline): 109 % of control and 118 % of control
- T/C (dose: 18.75 mg/kg/injection, schedule: Q04DX003 (ip), vehicle: saline with Tween-80): 121 % of control
- T/C (dose: 44.0 mg/kg/injection, schedule: Q01DX009 (ip), vehicle: saline with Tween-80): 107 % of control
- T/C [13]: 113 % of control
- T/C (dose: 75.0 mg/kg/injection, schedule: Q04DX003 (ip), vehicle: saline): 115 % of control
- T/C [7]: 150 % of control and 163 % of control

Compound: Cc1ccccc1CC(N)C(=O)O (configuration not stated)
- T/C [12]: 92 % of control
- T/C [3]: 92 % of control
- T/C [4]: 90 % of control

Compound: C=CCNC(=S)Nc1ccc(N(C)C)cc1
- T/C [13]: 100 % of control
- T/C [7]: 95 % of control
- T/C (dose: 200.0 mg/kg/injection, schedule: Q04DX003 (ip), vehicle: saline with Tween-80): 109 % of control
